Laboratory results as given in US6844355B2 (Academic Pharmaceuticals, Inc., priority 1999, dated 2005).
“Also recorded” adds a separate entry of the source.

Experiments:
KVLQT1+KCNE1 (IKs) = target: T1, KVLQT1+KCNE1 (IKs) (Homo sapiens, UniProt P51787); assay: KVLQT1+KCNE1 (IKs) currents in Xenopus oocytes; type: cell-based
T1 construct: expressed in transfected cells; host or cells: Xenopus laevis oocytes (co-injection of hminK and KVLQT1 cRNA)
Experimental: Wild type human minK (KCNE1) and KVLQT1 cDNA are isolated from human cardiac and pancreas cDNA libraries and cloned into the pSP64 poly (A) vector (Promega). For transcription in oocytes, the minK is subcloned from genomic DNA using the MKEL and MKER primers. The final minK expression construct contains cDNA inserted in the plasmid vector (PROMEGA). For the injection into Xenopus oocytes, cRNA is prepared using the mCAP RNA capping kit (Stratagene) following linearization of the expression construct by restriction digestion with EcoRI for run-off transcription.
In-vitro transcription is performed with SP6 RNA polymerize using the mMessage Machine kit (Ambion). The final capped-cRNA product is resuspended in 0.1 mM KCL and stored at −80° C. The concentration of synthesized RNA is estimated by separating the denatured cRNA on a 1.5% agarose gel together with the 0.24-9.5 kb RNA ladder (Gibco-BRL).
KVLQT1+KCNE1 currents are recorded with a solution containing in mmol-L: NaCl-96; KCl-2 CaCl2-1.8; MgCl2-1.0; and HEPES 5, pH 7.4. The following testing protocols are used: a) I-V plot, oocytes are held at −80 mV, then step pulses from −60 mV to +40 mV in 20 mV increments of 18 seconds are applied returning to −40 mV; b) Single pulses, the same protocol is applied for control current and after drug perfusion for current measurement. From a holding potential of −80 mV to a test potential of +40 mV during 18 seconds a pulse is applied. […] The cell is either left at a resting potential of −80 mV or stimulated from a holding potential of −80 mV to a test potential of +40 mV during 1000 ms in a frequency range of 0.3 Hz.
Isolation of oocytes and cRNA injection. Xenopus laevis frogs are anesthetized by immersion in 0.2% Trocaine for 15-30 min. A small incision is made in the lateral ventral quadrant of the abdomen and a small piece of ovarian tissue is removed. The incision is then sutured at both the muscle and the cutaneous layers with fine silk thread and the animal is allowed to recover. The ovarian lobe is digested with 10 mg/ml type 1A collagenase (Sigma) in calcium-free solution for 30-60 min to remove the follicle layer. Stage V and VI oocytes are injected with 40 nl of a solution containing 10 to 50 ng/μl cRNA of either SCN5A, HERG, or hminK and KVLQT1, and then incubated at 19° C. in a modified bath solution for 2-8 days.

ileum = assay: Ileum strip contractility, isometric muscle contractions; parameters: species or system Guinea pig; settings: for Bursts / Slow waves / Spikes: mean ± standard deviation; for effect on ileum strip contractility, in words: Table 2 / FIG. 9
Experimental: Rat Ileum Studies and Characterization of Chiral Separation Products. Guinea pig ileum is harvested and placed in warm (37° C.) Krebs […] buffer and oxygenated (95% O2 and 5% CO2). Segments approximately 4.5 cm long are placed on a transducer (Gilson Instruments) and a preload of 1 gm is placed on the tissue. The tissue is then placed in a chamber and bathed in Tyrode's solution (37.5° C.) and oxygenated (95% O2 and 5% CO2). Muscle contractions are measured isometrically. After stable contractions are obtained, a study compound is added to the tissue bath and recordings are made until a new steady state of contraction is obtained. Following a washout period, a new steady state of contraction is recorded and then the procedure repeated with a second dose of the drug being evaluated. Changes in contraction magnitude are recorded as the percentage change from baseline. This procedure is a modification of the technique described by Van Neuten and associates (Van Neuten et al., Life Sci. 1978 28:453-458). […] The preparation permits the identification of slow waves of contraction, bursts of contraction of the smooth muscle and spikes of marked cross-sectional contraction. Each of the measures can be used as a measurement of contractile effect of an agent.

T1 sequence (P51787 whole entry): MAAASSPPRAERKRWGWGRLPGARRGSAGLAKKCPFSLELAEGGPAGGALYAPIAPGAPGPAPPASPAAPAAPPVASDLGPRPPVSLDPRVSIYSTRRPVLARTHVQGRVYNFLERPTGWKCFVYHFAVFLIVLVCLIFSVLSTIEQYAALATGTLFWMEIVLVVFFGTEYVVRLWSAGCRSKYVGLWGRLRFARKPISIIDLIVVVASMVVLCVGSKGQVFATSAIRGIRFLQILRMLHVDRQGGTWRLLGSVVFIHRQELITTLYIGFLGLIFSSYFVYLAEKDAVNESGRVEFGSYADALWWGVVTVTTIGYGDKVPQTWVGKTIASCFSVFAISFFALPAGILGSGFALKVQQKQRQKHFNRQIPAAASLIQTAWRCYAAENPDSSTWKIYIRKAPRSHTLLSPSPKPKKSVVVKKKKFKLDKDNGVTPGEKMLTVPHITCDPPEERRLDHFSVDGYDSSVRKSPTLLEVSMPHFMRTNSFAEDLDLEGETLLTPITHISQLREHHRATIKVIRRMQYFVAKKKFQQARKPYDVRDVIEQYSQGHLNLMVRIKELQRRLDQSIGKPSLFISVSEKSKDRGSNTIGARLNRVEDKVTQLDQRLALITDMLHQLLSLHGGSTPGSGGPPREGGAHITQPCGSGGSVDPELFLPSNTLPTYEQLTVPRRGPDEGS

Row | reduction of IKs currents (KVLQT1+KCNE1 (IKs); concentrations from 10^−6 to 10^−4, respectively) | Compound | effect on IKs current, in words (KVLQT1+KCNE1 (IKs); 100 μM) | % of block of IKs (KVLQT1+KCNE1 (IKs); 10^−4 Molar) | % of block of IKs (KVLQT1+KCNE1 (IKs); 10^−5 Molar) | % of block of IKs (KVLQT1+KCNE1 (IKs); 10^−6 Molar) | Bursts (ileum; 10^−5 M) | Slow waves (ileum; 10^−5 M) | Spikes (ileum; 10^−5 M) | Bursts (ileum; 10^−6 M) | Slow waves (ileum; 10^−6 M) | Spikes (ileum; 10^−6 M) | Bursts (ileum; 10^−7 M) | Slow waves (ileum; 10^−7 M) | Spikes (ileum; 10^−7 M) | effect on rat illeal strip tracings, in words (ileum; 10^−7 and 10^−6 M, FIG. 9 legend) | effect on ileum strip contractility, in words (ileum)
1 | – | CCCCc1oc2ccccc2c1C(=O)c1cc(I)c(OCCN(CC)CC)c(I)c1 [AMIODARONE, amiodarone] | inhibits the current flow across the IKs channel | 47 ± 1% | 30 ± 3% | 15 ± 1% | – | – | – | – | – | – | – | – | – | – | –
2 | 14 to 52% | C=C[C@H]1C[N@@]2CC[C@H]1C[C@@H]2[C@@H](O)c1ccnc2ccc(OC)cc12 [Quinidine, quinidine] | – | 52 ± 5% | 21 ± 7% | 14 ± 5% | 14 ± 4 | 6 ± 1 | 15 ± 1 | 7.7 ± 1.2 | 3.0 ± 0.5 | 13 ± 2 | 8 ± 2 | 3.3 ± 0.6 | 11 ± 1 | reduces the magnitude of contraction | augmentation of slow wave contractility, burst contractility and spike contractility; also recorded: increases slow waves
3 | – | C=C[C@H]1C[N@@]2CC[C@H]1C[C@H]2[C@H](O)c1ccnc2ccc(OC)cc12 [quinine] | – | – | – | – | – | – | – | – | – | – | – | – | – | – | no effect
